Measurements as given in patent publication US9617283B2, “Bicyclic heterocycle compounds and their uses in therapy” (ASTEX THERAPEUTICS LIMITED, priority 2012, dated 2017).
Where a name gives a salt, the structure may show the parent alone. Read-outs that look alike come from different tables or passages of the source.

Tests used:
[1] = system: EVSA-T (human breast carcinoma); experiment: Anti-proliferative activity, Alamar Blue assay, EVSA-T; format: cell-based
[2] = biological target: T1, BIR3 domain of human XIAP (residues 252-350) (Homo sapiens, UniProt P98170); experiment: XIAP in vitro competitive displacement binding assay (fluorescence polarization); conditions: 1 h, percent inhibition (PI) at 0.04 μM; read-out: Xiap IC50 or PI μM
T1 construct: BIR3 domain of human XIAP (residues 252-350); His-tag (cleaved yes); made in house; host or cells: Escherichia coli
T1 sequence (P98170 252-350): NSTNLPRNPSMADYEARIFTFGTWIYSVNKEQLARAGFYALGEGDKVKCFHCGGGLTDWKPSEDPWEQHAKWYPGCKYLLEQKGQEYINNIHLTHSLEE

[3] = Homo sapiens, EVSA-T, 72 h, EVSA-T cell line, 72 hours, Alamar Blue; read-out: EVSA-T prolif
[4] = Homo sapiens, EVSA-T; read-out: EC50 in EVSA-T cell line assays

CCCC(F)(F)c1cc2c(cn1)C(C)(C)CN2C(=O)CN1C[C@@H](C)NC[C@@H]1CN1C[C@H](C)CC1=O [Example 72, (4R)-1-{[(2R,5R)-1-{2-[6-(1,1-Difluorobutyl)-3,3-dimethyl-1H,2H,3H-pyrrolo[3,2-c]pyridin-1-yl]-2-oxoethyl}-5-methylpiperazin-2-yl]methyl}-4-methylpyrrolidin-2-one dihydrochloride]
EC50 [1, 3]: 0.027 µM | EC50 [1, 4]: < 1 µM | inhibition at 0.04 µM [2]: 79%

C[C@H]1CC(=O)N(C[C@H]2CN[C@H](C)CN2CC(=O)N2CC(C)(C)c3ncc(Cc4ccc(F)cc4F)cc32)C1 [Example 73, (4S)-1-{[(2R,5R)-1-(2-{6-[(2,4-Difluorophenyl)methyl]-3,3-dimethyl-1H,2H,3H-pyrrolo[3,2-b]pyridin-1-yl}-2-oxoethyl)-5-methylpiperazin-2-yl]methyl}-4-methylpyrrolidin-2-one dihydrochloride]
EC50 [1, 3]: 0.0025 µM | EC50 [1, 4]: < 1 µM | inhibition at 0.04 µM [2]: 64%

C[C@H]1CC(=O)N(C[C@H]2CN[C@H](C)CN2CC(=O)N2CC(C)(C)c3cnc(Cc4ccc(F)cc4F)cc32)C1 [Example 74, (4S)-1-{[(2R,5R)-1-(2-{6-[(2,4-Difluorophenyl)methyl]-3,3-dimethyl-1H,2H,3H-pyrrolo[3,2-c]pyridin-1-yl}-2-oxoethyl)-5-methylpiperazin-2-yl]methyl}-4-methylpyrrolidin-2-one dihydrochloride]
EC50 [1, 3]: 0.0018 µM | EC50 [1, 4]: < 1 µM | inhibition at 0.04 µM [2]: 71%

CCCC(F)(F)c1cc2c(cn1)C(C)(C)CN2C(=O)CN1C[C@@H](C)NC[C@@H]1CN1C[C@@H](C)CC1=O [Example 75, (4S)-1-{[(2R,5R)-1-{2-[6-(1,1-Difluorobutyl)-3,3-dimethyl-1H,2H,3H-pyrrolo[3,2-c]pyridin-1-yl]-2-oxoethyl}-5-methylpiperazin-2-yl]methyl}-4-methylpyrrolidin-2-one dihydrochloride]
EC50 [1, 3]: 0.014 µM | EC50 [1, 4]: < 1 µM | inhibition at 0.04 µM [2]: 75%

C[C@@H]1CN(CC(=O)N2CC(C)(C)c3cnc(Cc4ccc(F)cc4F)cc32)[C@@H](CN2Cc3ccccc3C2=O)CN1 [Example 77, 2-{[(2R,5R)-1-(2-{6-[(2,4-Difluorophenyl)methyl]-3,3-dimethyl-1H,2H,3H-pyrrolo[3,2-c]pyridin-1-yl}-2-oxoethyl)-5-methylpiperazin-2-yl]methyl}-2,3-dihydro-1H-isoindol-1-one dihydrochloride]
EC50 [1, 3]: 0.00017 µM | EC50 [1, 4]: < 1 µM | inhibition at 0.04 µM [2]: 90%

CCCC(F)(F)c1cc2c(cn1)C(C)(C)CN2C(=O)CN1C[C@@H](C)NC[C@@H]1CN1Cc2ccncc2C1=O [Example 78, 2-{[(2R,5R)-1-{2-[6-(1,1-Difluorobutyl)-3,3-dimethyl-1H,2H,3H-pyrrolo[3,2-c]pyridin-1-yl]-2-oxoethyl}-5-methylpiperazin-2-yl]methyl}-1H,2H,3H-pyrrolo[3,4-c]pyridin-3-one dihydrochloride]
EC50 [1, 3]: 0.0034 µM | EC50 [1, 4]: < 1 µM | inhibition at 0.04 µM [2]: 64%

C[C@@H]1CN(CC(=O)N2CC(C)(C)c3cnc(Cc4ccc(F)cc4F)cc32)[C@@H](CN2C[C@H](C)N(C)CC2=O)CN1 [Example 81, (5S)-1-{[(2R,5R)-1-(2-{6-[(2,4-Difluorophenyl)methyl]-3,3-dimethyl-1H,2H,3H-pyrrolo[3,2-c]pyridin-1-yl}-2-oxoethyl)-5-methylpiperazin-2-yl]methyl}-4,5-dimethylpiperazin-2-one dihydrochloride]
EC50 [1, 3]: 0.0028 µM | EC50 [1, 4]: < 1 µM | inhibition at 0.04 µM [2]: 52%

C[C@@H]1CN(CC(=O)N2CC(C)(C)c3ncc([C@H](O)c4ccc(F)cc4)cc32)[C@@H](CN2Cc3ccccc3C2=O)CN1 [Example 84, 2-{[(2R,5R)-1-(2-{6-[(R)-(4-Fluorophenyl)(hydroxy)methyl]-3,3-dimethyl-1H,2H,3H-pyrrolo[3,2-b]pyridin-1-yl}-2-oxoethyl)-5-methylpiperazin-2-yl]methyl}-2,3-dihydro-1H-isoindol-1-one dihydrochloride]
EC50 [1, 3]: 0.15 µM | EC50 [1, 4]: < 1 µM | inhibition at 0.04 µM [2]: 51%

C[C@@H]1CN(CC(=O)N2CC(C)(C)c3cnc(Cc4ccc(F)cc4F)cc32)[C@@H](CN2C[C@@H](C)N(C)CC2=O)CN1 [Example 85, (5R)-1-{[(2R,5R)-1-(2-{6-[(2,4-Difluorophenyl)methyl]-3,3-dimethyl-1H,2H,3H-pyrrolo[3,2-c]pyridin-1-yl}-2-oxoethyl)-5-methylpiperazin-2-yl]methyl}-4,5-dimethylpiperazin-2-one dihydrochloride]
EC50 [1, 3]: 0.0045 µM | EC50 [1, 4]: < 1 µM | inhibition at 0.04 µM [2]: 45%

COc1ccc2c(c1)CN(C[C@H]1CN[C@H](C)CN1CC(=O)N1CC(C)(C)c3cnc(Cc4ccc(F)cc4)cc31)C2=O [Example 92, 2-{[(2R,5R)-1-(2-{6-[(4-Fluorophenyl)methyl]-3,3-dimethyl-1H,2H,3H-pyrrolo[3,2-c]pyridin-1-yl}-2-oxoethyl)-5-methylpiperazin-2-yl]methyl}-5-methoxy-2,3-dihydro-1H-isoindol-1-one dihydrochloride]
EC50 [1, 3]: 0.00026 µM | EC50 [1, 4]: < 1 µM | inhibition at 0.04 µM [2]: 93%

C[C@@H]1CN(CC(=O)N2CC(C)(C)c3ncc([C@@H](O)c4ccc(F)cc4)cc32)[C@@H](CN2Cc3ccccc3C2=O)CN1 [Example 96, 2-{[(2R,5R)-1-(2-{6-[(S)-(4-Fluorophenyl)(hydroxy)methyl]-3,3-dimethyl-1H,2H,3H-pyrrolo[3,2-b]pyridin-1-yl}-2-oxoethyl)-5-methylpiperazin-2-yl]methyl}-2,3-dihydro-1H-isoindol-1-one]
EC50 [1, 3]: 0.031 µM | EC50 [1, 4]: < 1 µM | inhibition at 0.04 µM [2]: 62%

C[C@@H]1CN(CC(=O)N2CC(C)(C)c3ncc(Cc4ccc(F)cc4F)cc32)[C@@H](CN2C[C@H](C)N(C)CC2=O)CN1 [Example 98, (5S)-1-{[(2R,5R)-1-(2-{6-[(2,4-Difluorophenyl)methyl]-3,3-dimethyl-1H,2H,3H-pyrrolo[3,2-b]pyridin-1-yl}-2-oxoethyl)-5-methylpiperazin-2-yl]methyl}-4,5-dimethylpiperazin-2-one dihydrochloride]
EC50 [1, 3]: 0.0035 µM | EC50 [1, 4]: < 1 µM | inhibition at 0.04 µM [2]: 39%

CCCC(F)(F)c1cc2c(nn1)C(C)(C)CN2C(=O)CN1C[C@@H](C)NC[C@@H]1CN1Cc2ccc(F)cc2C1=O [Example 99, 2-{[(2R,5R)-1-{2-[3-(1,1-Difluorobutyl)-7,7-dimethyl-5H,6H,7H-pyrrolo[3,2-c]pyridazin-5-yl]-2-oxoethyl}-5-methylpiperazin-2-yl]methyl}-6-fluoro-2,3-dihydro-1H-isoindol-1-one dihydrochloride]
EC50 [1, 3]: 0.0066 µM | EC50 [1, 4]: < 1 µM | inhibition at 0.04 µM [2]: 65%

C[C@@H]1CN(CC(=O)N2CC(C)(C)c3ncc(Cc4ccc(F)cc4F)cc32)[C@@H](CN2C(=O)CO[C@@H](C)[C@H]2C)CN1 [Example 100, (5R,6S)-4-{[(2R,5R)-1-(2-{6-[(2,4-Difluorophenyl)methyl]-3,3-dimethyl-1H,2H,3H-pyrrolo[3,2-b]pyridin-1-yl}-2-oxoethyl)-5-methylpiperazin-2-yl]methyl}-5,6-dimethylmorpholin-3-one dihydrochloride]
EC50 [1, 3]: 0.0019 µM | EC50 [1, 4]: < 1 µM | inhibition at 0.04 µM [2]: 41%

COC[C@@H]1CN(C[C@H]2CN[C@H](C)CN2CC(=O)N2CC(C)(C)c3ncc(Cc4ccc(F)cc4)cc32)C(=O)CO1 [Example 102, (6S)-4-{[(2R,5R)-1-(2-{6-[(4-Fluorophenyl)methyl]-3,3-dimethyl-1H,2H,3H-pyrrolo[3,2-b]pyridin-1-yl}-2-oxoethyl)-5-methylpiperazin-2-yl]methyl}-6-(methoxymethyl)morpholin-3-one dihydrochloride]
EC50 [1, 3]: 0.0069 µM | EC50 ([1]; Homo sapiens, EVSA-T, read-out: EC50 in EVSA-T cell line assays): < 1 µM | inhibition at 0.04 µM [2]: 51%

C[C@@H]1CN(CC(=O)N2CC(C)(C)c3ncc(Cc4ccc(F)cc4F)cc32)[C@@H](CN2Cc3cc(O)ccc3C2=O)CN1 [Example 105, 2-{[(2R,5R)-1-(2-{6-[(2,4-Difluorophenyl)methyl]-3,3-dimethyl-1H,2H,3H-pyrrolo[3,2-b]pyridin-1-yl}-2-oxoethyl)-5-methylpiperazin-2-yl]methyl}-5-hydroxy-2,3-dihydro-1H-isoindol-1-one dihydrochloride]
EC50 [1, 3]: 0.0065 µM | EC50 [1, 4]: < 1 µM | inhibition at 0.04 µM [2]: 90%

C[C@@H]1CN(CC(=O)N2CC(C)(C)c3ncc(Cc4ccc(F)cc4F)cc32)[C@@H](CN2Cc3cc(C#N)ccc3C2=O)CN1 [Example 106, 2-{[(2R,5R)-1-(2-{6-[(2,4-Difluorophenyl)methyl]-3,3-dimethyl-1H,2H,3H-pyrrolo[3,2-b]pyridin-1-yl}-2-oxoethyl)-5-methylpiperazin-2-yl]methyl}-1-oxo-2,3-dihydro-1H-isoindole-5-carbonitrile dihydrochloride]
EC50 [1, 3]: 0.0021 µM | EC50 [1, 4]: < 1 µM | inhibition at 0.04 µM [2]: 90%

C[C@@H]1CN(CC(=O)N2CC(C)(C)c3cnc(Cc4ccc(F)cc4)cc32)[C@@H](CN2C[C@H](C)N(C)CC2=O)CN1 [Example 107, (5S)-1-{[(2R,5R)-1-(2-{6-[(4-Fluorophenyl)methyl]-3,3-dimethyl-1H,2H,3H-pyrrolo[3,2-c]pyridin-1-yl}-2-oxoethyl)-5-methylpiperazin-2-yl]methyl}-4,5-dimethylpiperazin-2-one dihydrochloride]
EC50 [1, 3]: 0.011 µM | EC50 [1, 4]: < 1 µM | inhibition at 0.04 µM [2]: 67%

C[C@@H]1CN(CC(=O)N2CC(C)(C)c3nnc(Cc4ccc(F)cc4F)cc32)[C@@H](CN2Cc3cc(O)ccc3C2=O)CN1 [Example 108, 2-{[(2R,5R)-1-(2-{3-[(2,4-Difluorophenyl)methyl]-7,7-dimethyl-5H,6H,7H-pyrrolo[3,2-c]pyridazin-5-yl}-2-oxoethyl)-5-methylpiperazin-2-yl]methyl}-5-hydroxy-2,3-dihydro-1H-isoindol-1-one dihydrochloride]
EC50 [1, 3]: 0.011 µM | EC50 [1, 4]: < 1 µM | inhibition at 0.04 µM [2]: 88%
